Laboratory results from US20230077362A1 (CORTEVA AGRISCIENCE LLC, priority 2019, published 2023).

Experiments:
[1] = tested on: Beet Armyworm (Spodoptera exigua) ("BAW"), second instar larvae; assay: Bioassay on beet armyworm (BAW), 128-well diet tray assay; assay type: in vivo; conditions: for pest or weed control at 50 µg/cm2: Spodoptera exigua, read-out: BAW rating; for BAW rating: Table ABC, species BAW, C = not tested, D = no activity noticed
In short: (§1)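 Each value represents average percent mortality from eight wells. Larvae were kept in clear-covered trays at 25° C. for five to seven days on a 14-hour light, 10-hour dark schedule before scoring.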

[2] = tested on: Cabbage Looper (Trichoplusia ni) ("CL"), second instar larvae; assay: Bioassay on cabbage looper (CL), 128-well diet tray assay; assay type: in vivo; conditions: for pest or weed control at 50 µg/cm2: Trichoplusia ni, read-out: CL rating; for CL rating: Table ABC, species CL, C = not tested, D = no activity noticed
In short: as §1

Structure (SMILES) | pest or weed control at 50 µg/cm2 [1] | pest or weed control at 50 µg/cm2 [2] | BAW rating [1] | CL rating [2]
Cc1cccc(N2C(=O)CS/C2=N\C(=O)Nc2ccc(-n3cnc(-c4ccc(OC(F)(F)F)cc4)n3)cc2F)c1COCC(F)(F)F [Compound J703, (Z)-1-(2-Fluoro-4-(3-(4-(trifluoromethoxy)phenyl)-1H-1,2,4-triazol-1-yl)phenyl)-3-(3-(3-methyl-2-((2,2,2-trifluoroethoxy)methyl)phenyl)-4-oxothiazolidin-2-ylidene)urea] | 50 to 100% | 50 to 100% | – | –
Cc1cccc(N2C(=O)CS/C2=N\C(=O)Nc2ccc(-n3cnc(-c4ccc(C(F)(F)F)cc4)n3)cc2F)c1COCC(F)(F)F [Compound J704, (Z)-1-(2-Fluoro-4-(3-(4-(trifluoromethyl)phenyl)-1H-1,2,4-triazol-1-yl)phenyl)-3-(3-(3-methyl-2-((2,2,2-trifluoroethoxy)methyl)phenyl)-4-oxothiazolidin-2-ylidene)urea] | 50 to 100% | 50 to 100% | – | –
Cc1ccc(COCC(F)(F)F)c(N2C(=O)CS/C2=N\C(=O)Nc2ccc(-c3ncn(-c4cccc(OC(F)(F)F)c4)n3)cc2F)c1 [Compound J705] | – | – | A (50-100) | A (50-100)
Cc1cccc(N2C(=O)CS/C2=N\C(=O)Nc2ccc(-c3ncn(-c4cccc(OC(F)(F)F)c4)n3)cc2F)c1COCC(F)(F)F [Compound J706] | – | – | A (50-100) | A (50-100)
Cc1ccc(COCC(F)(F)F)c(N2C(=O)CS/C2=N\C(=O)Nc2ccc(-c3ncn(-c4cccc(C(F)(F)F)c4)n3)cc2F)c1 [Compound J710] | – | – | A (50-100) | A (50-100)
CCOCc1ccc(C)cc1N1C(=O)CS/C1=N\C(=O)Nc1ccc(-c2ncn(-c3cccc(OC(F)(F)F)c3)n2)cc1F [Compound J711] | – | – | A (50-100) | A (50-100)
Cc1ccc(COCC(F)(F)F)c(N2C(=O)CS/C2=N\C(=O)Nc2ccc(-c3ncn(-c4cccc(OC(F)(F)F)c4)n3)cc2C)c1 [Compound J722] | – | – | A (50-100) | A (50-100)
CCOCc1ccc(C)cc1N1C(=O)CS/C1=N\C(=O)Nc1ccc(-c2ncn(-c3cccc(C(F)(F)F)c3)n2)cc1F [Compound J723] | – | – | A (50-100) | A (50-100)
CCOCc1ccc(C)cc1N1C(=O)CS/C1=N\C(=O)Nc1ccc(-c2ncn(-c3cccc(OC(F)(F)F)c3)n2)cc1C [Compound J726] | – | – | A (50-100) | A (50-100)
Cc1ccc(COCC(F)(F)F)c(N2C(=O)CS/C2=N\C(=O)Nc2ccc(-c3ncn(-c4cccc(C(F)(F)F)c4)n3)cc2C)c1 [Compound J727] | – | – | A (50-100) | A (50-100)
Cc1ccc(C(C)C)c(N2C(=O)CS/C2=N\C(=O)Nc2ccc(-n3cnc(-c4ccc(OC(F)(F)F)cc4)n3)cc2Cl)c1 [Compound J728, (Z)-1-(2-Chloro-4-(3-(4-(trifluoromethoxy)phenyl)-1H-1,2,4-triazol-1-yl)phenyl)-3-(3-(2-isopropyl-5-methylphenyl)-4-oxothiazolidin-2-ylidene)urea] | 50 to 100% | 50 to 100% | – | –
COC(c1ccc(C)cc1N1C(=O)CS/C1=N\C(=O)Nc1ccc(-n2cnc(-c3ccc(OC(F)(F)F)cc3)n2)cc1Cl)C(F)(F)F (stereo not drawn) [Compound J729, (Z)-1-(2-Chloro-4-(3-(4-(trifluoromethoxy)phenyl)-1H-1,2,4-triazol-1-yl)phenyl)-3-(3-(5-methyl-2-(2,2,2-trifluoro-1-methoxyethyl)phenyl)-4-oxothiazolidin-2-ylidene)urea] | 50 to 100% | 50 to 100% | – | –
COCc1ccc(C)cc1N1C(=O)CS/C1=N\C(=O)Nc1ccc(-n2cnc(-c3ccc(OC(F)(F)F)cc3)n2)cc1Cl [Compound J730, (Z)-1-(2-Chloro-4-(3-(4-(trifluoromethoxy)phenyl)-1H-1,2,4-triazol-1-yl)phenyl)-3-(3-(2-(methoxymethyl)-5-methylphenyl)-4-oxothiazolidin-2-ylidene)urea] | 50 to 100% | 50 to 100% | – | –
O=C(/N=C1\SCC(=O)N1c1ccccc1COCC(F)(F)F)Nc1ccc(-n2cnc(-c3ccc(OC(F)(F)F)cc3)n2)cc1Cl [Compound J732, (Z)-1-(2-Chloro-4-(3-(4-(trifluoromethoxy)phenyl)-1H-1,2,4-triazol-1-yl)phenyl)-3-(4-oxo-3-(2-((2,2,2-trifluoroethoxy)methyl)phenyl)thiazolidin-2-ylidene)urea] | 50 to 100% | 50 to 100% | – | –
Cc1cc(COCC(F)(F)F)c(N2C(=O)CS/C2=N\C(=O)Nc2ccc(-n3cnc(-c4ccc(OC(F)(F)F)cc4)n3)cc2Cl)cc1C [Compound J733, (Z)-1-(2-Chloro-4-(3-(4-(trifluoromethoxy)phenyl)-1H-1,2,4-triazol-1-yl)phenyl)-3-(3-(4,5-dimethyl-2-((2,2,2-trifluoroethoxy)methyl)phenyl)-4-oxothiazolidin-2-ylidene)urea] | 50 to 100% | 50 to 100% | – | –
Cc1ccc(OCCC(F)(F)F)c(N2C(=O)CS/C2=N\C(=O)Nc2ccc(-n3cnc(-c4ccc(OC(F)(F)F)cc4)n3)cc2Cl)c1 [Compound J737, (Z)-1-(2-Chloro-4-(3-(4-(trifluoromethoxy)phenyl)-1H-1,2,4-triazol-1-yl)phenyl)-3-(3-(5-methyl-2-(3,3,3-trifluoropropoxy)phenyl)-4-oxothiazolidin-2-ylidene)urea] | 50 to 100% | 50 to 100% | – | –
Cc1cc(COCC(F)(F)F)c(N2C(=O)CS/C2=N\C(=O)Nc2ccc(-c3ncn(-c4cccc(OC(F)(F)F)c4)n3)cc2F)cc1C [Compound J738] | – | – | A (50-100) | A (50-100)
Cc1ccc(-n2cnc(-c3ccc(NC(=O)/N=C4\SCC(=O)N4c4cc(C)ccc4COCC(F)(F)F)c(F)c3)n2)cc1 [Compound J752] | – | – | A (50-100) | A (50-100)
CCOCc1ccc(C)cc1N1C(=O)CS/C1=N\C(=O)Nc1ccc(-c2ncn(-c3ccc(C)cc3)n2)cc1F [Compound J753, (Z)-1-(3-(2-(Ethoxymethyl)-5-methylphenyl)-4-oxothiazolidin-2-ylidene)-3-(2-fluoro-4-(1-(p-tolyl)-1H-1,2,4-triazol-3-yl)phenyl)urea] | 50 to 100% | 50 to 100% | – | –
COc1ccc(-n2cnc(-c3ccc(NC(=O)/N=C4\SCC(=O)N4c4cc(C)ccc4COCC(F)(F)F)c(F)c3)n2)cc1 [Compound J754, (Z)-1-(2-Fluoro-4-(1-(4-methoxyphenyl)-1H-1,2,4-triazol-3-yl)phenyl)-3-(3-(5-methyl-2-((2,2,2-trifluoroethoxy)methyl)phenyl)-4-oxothiazolidin-2-ylidene)urea] | 50 to 100% | 50 to 100% | – | –
CCOCc1ccc(C)cc1N1C(=O)CS/C1=N\C(=O)Nc1ccc(-c2ncn(-c3ccc(OC)cc3)n2)cc1F [Compound J755, (Z)-1-(3-(2-(Ethoxymethyl)-5-methylphenyl)-4-oxothiazolidin-2-ylidene)-3-(2-fluoro-4-(1-(4-methoxyphenyl)-1H-1,2,4-triazol-3-yl)phenyl)urea] | 50 to 100% | 50 to 100% | – | –
COc1ccc(-n2cnc(-c3ccc(NC(=O)/N=C4\SCC(=O)N4c4cc(C)c(C)cc4COCC(F)(F)F)c(F)c3)n2)cc1 [Compound J756, (Z)-1-(3-(4,5-Dimethyl-2-((2,2,2-trifluoroethoxy)methyl)phenyl)-4-oxothiazolidin-2-ylidene)-3-(2-fluoro-4-(1-(4-methoxyphenyl)-1H-1,2,4-triazol-3-yl)phenyl)urea] | 50 to 100% | 50 to 100% | – | –
COc1ccc(-n2cnc(-c3ccc(NC(=O)/N=C4\SCC(=O)N4c4cc(C)ccc4COCC(F)F)c(F)c3)n2)cc1 [Compound J757, (Z)-1-(3-(2-((2,2-Difluoroethoxy)methyl)-5-methylphenyl)-4-oxothiazolidin-2-ylidene)-3-(2-fluoro-4-(1-(4-methoxyphenyl)-1H-1,2,4-triazol-3-yl)phenyl)urea] | 50 to 100% | 50 to 100% | – | –
Cc1ccc(Cc2cccnc2)c(N2C(=O)CS/C2=N\C(=O)Nc2ccc(-c3ncn(-c4ccc(C(F)(F)F)cc4)n3)cc2F)c1 [Compound J758, (Z)-1-(2-Fluoro-4-(1-(4-(trifluoromethyl)phenyl)-1H-1,2,4-triazol-3-yl)phenyl)-3-(3-(5-methyl-2-(pyridin-3-ylmethyl)phenyl)-4-oxothiazolidin-2-ylidene)urea] | 50 to 100% | 50 to 100% | – | –
Cc1ccc(COCC(F)(F)F)c(N2C(=O)CS/C2=N\C(=O)Nc2ccc(-c3ncn(-c4cc(C(F)(F)F)cc(C(F)(F)F)c4)n3)cc2F)c1 [Compound J760, (Z)-1-(4-(1-(3,5-Bis(trifluoromethyl)phenyl)-1H-1,2,4-triazol-3-yl)-2-fluorophenyl)-3-(3-(5-methyl-2-((2,2,2-trifluoroethoxy)methyl)phenyl)-4-oxothiazolidin-2-ylidene)urea] | 50 to 100% | 0 to 50% | – | –
CCOCc1ccc(C)cc1N1C(=O)CS/C1=N\C(=O)Nc1ccc(-c2ncn(-c3cc(C(F)(F)F)cc(C(F)(F)F)c3)n2)cc1F [Compound J761] | – | – | A (50-100) | A (50-100)
CCOCc1ccc(C)cc1N1C(=O)CS/C1=N\C(=O)Nc1ccc(-c2ncn(-c3cc(C(F)(F)F)cc(C(F)(F)F)c3)n2)cc1C [Compound J763, (Z)-1-(4-(1-(3,5-Bis(trifluoromethyl)phenyl)-1H-1,2,4-triazol-3-yl)-2-methylphenyl)-3-(3-(2-(ethoxymethyl)-5-methylphenyl)-4-oxothiazolidin-2-ylidene)urea] | 50 to 100% | 50 to 100% | – | –
